Test results as given in patent publication US10479786B2, “Protein kinase inhibitors” (Princeton Drug Discovery Inc, priority 2016, dated 2019).

How the values were obtained:
ARG = molecular target: T1, ARG (Homo sapiens, UniProt P42684); assay: Off-chip Mobility Shift Assay, kinase inhibition; assay type: biochemical; details: at 10 nM; recombinant ARG; read-out: inhibition
T1 construct: purchased Carna Biosciences, Inc

BLK = molecular target: T2, BLK (Homo sapiens, UniProt P51451); assay: Off-chip Mobility Shift Assay, kinase inhibition; assay type: biochemical; details: at 10 nM; recombinant BLK
T2 construct: purchased Carna Biosciences, Inc
T2 sequence (P51451 whole entry): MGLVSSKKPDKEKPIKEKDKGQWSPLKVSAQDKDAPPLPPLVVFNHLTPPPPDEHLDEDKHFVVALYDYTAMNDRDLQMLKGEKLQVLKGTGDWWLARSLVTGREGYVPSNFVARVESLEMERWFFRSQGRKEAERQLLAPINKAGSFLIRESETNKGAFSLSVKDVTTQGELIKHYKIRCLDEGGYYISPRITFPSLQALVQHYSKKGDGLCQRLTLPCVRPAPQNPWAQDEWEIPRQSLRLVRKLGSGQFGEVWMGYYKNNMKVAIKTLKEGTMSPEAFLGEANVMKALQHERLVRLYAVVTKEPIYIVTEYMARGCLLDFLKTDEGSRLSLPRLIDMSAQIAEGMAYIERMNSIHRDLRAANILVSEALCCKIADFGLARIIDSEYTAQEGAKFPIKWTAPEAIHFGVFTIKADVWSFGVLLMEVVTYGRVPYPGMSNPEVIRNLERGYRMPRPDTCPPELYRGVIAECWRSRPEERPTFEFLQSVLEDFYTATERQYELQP

ABL = molecular target: T3, ABL (Homo sapiens, UniProt P00519); assay: Off-chip Mobility Shift Assay, kinase inhibition; assay type: biochemical; details: recombinant ABL; for inhibition at 0.001 µM: at 1 nM; for inhibition at 0.01 µM: at 10 nM
T3 construct: purchased Carna Biosciences, Inc

FMS = molecular target: T4, FMS (Homo sapiens, UniProt P07333); assay: Off-chip Mobility Shift Assay, kinase inhibition; assay type: biochemical; details: at 10 nM; recombinant FMS
T4 construct: purchased Carna Biosciences, Inc
T4 sequence (P07333 20-972): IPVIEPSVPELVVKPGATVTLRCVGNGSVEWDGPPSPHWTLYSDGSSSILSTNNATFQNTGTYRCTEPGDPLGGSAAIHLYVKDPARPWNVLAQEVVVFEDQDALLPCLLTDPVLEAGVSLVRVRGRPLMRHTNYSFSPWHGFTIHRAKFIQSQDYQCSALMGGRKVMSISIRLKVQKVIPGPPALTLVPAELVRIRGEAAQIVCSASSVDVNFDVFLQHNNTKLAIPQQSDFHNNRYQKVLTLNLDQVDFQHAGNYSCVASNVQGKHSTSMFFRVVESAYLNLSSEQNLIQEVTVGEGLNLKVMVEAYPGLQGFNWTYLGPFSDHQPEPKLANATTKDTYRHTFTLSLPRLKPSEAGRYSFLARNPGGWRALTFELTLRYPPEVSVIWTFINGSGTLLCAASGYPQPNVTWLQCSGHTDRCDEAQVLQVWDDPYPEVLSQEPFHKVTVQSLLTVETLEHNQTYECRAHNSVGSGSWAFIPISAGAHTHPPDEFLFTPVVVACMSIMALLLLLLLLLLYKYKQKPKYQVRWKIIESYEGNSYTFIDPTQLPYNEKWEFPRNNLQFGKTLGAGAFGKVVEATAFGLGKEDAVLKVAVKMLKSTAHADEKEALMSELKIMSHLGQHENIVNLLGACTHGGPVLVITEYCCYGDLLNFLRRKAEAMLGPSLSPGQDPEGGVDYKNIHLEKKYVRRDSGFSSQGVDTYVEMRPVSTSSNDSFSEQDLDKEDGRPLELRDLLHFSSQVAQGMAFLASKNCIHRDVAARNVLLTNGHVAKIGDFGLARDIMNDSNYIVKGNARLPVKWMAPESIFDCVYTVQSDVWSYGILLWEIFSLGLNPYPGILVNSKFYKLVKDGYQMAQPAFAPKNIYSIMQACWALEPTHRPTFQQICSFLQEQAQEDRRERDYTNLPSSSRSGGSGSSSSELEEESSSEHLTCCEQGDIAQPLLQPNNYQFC

LYNa = molecular target: T5, LYNa (Homo sapiens, UniProt P07948); assay: Off-chip Mobility Shift Assay, kinase inhibition; assay type: biochemical; details: recombinant LYNa; for inhibition at 0.001 µM: at 1 nM; for inhibition at 0.01 µM: at 10 nM, read-out: inhibition
T5 construct: purchased Carna Biosciences, Inc
T5 sequence (P07948 whole entry): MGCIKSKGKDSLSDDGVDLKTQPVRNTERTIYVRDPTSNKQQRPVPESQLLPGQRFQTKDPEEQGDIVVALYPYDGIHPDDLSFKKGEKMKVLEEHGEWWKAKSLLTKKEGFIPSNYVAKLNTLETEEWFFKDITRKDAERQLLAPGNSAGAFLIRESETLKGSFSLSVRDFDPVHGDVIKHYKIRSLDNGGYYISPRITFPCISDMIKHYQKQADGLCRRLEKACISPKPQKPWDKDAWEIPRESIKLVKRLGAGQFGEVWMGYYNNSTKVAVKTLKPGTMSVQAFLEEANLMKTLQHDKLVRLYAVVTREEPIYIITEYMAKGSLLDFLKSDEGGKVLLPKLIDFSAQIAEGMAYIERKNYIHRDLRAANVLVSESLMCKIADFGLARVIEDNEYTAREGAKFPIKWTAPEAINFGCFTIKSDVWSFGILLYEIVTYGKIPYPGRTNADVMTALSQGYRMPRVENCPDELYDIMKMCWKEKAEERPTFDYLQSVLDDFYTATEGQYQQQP

FYN(isoform a) = molecular target: T6, FYN(isoform a) (Homo sapiens, UniProt P06241); assay: Off-chip Mobility Shift Assay, kinase inhibition; assay type: biochemical; details: at 10 nM; recombinant FYN(isoform a)
T6 construct: purchased Carna Biosciences, Inc
T6 sequence (P06241 whole entry, canonical isoform): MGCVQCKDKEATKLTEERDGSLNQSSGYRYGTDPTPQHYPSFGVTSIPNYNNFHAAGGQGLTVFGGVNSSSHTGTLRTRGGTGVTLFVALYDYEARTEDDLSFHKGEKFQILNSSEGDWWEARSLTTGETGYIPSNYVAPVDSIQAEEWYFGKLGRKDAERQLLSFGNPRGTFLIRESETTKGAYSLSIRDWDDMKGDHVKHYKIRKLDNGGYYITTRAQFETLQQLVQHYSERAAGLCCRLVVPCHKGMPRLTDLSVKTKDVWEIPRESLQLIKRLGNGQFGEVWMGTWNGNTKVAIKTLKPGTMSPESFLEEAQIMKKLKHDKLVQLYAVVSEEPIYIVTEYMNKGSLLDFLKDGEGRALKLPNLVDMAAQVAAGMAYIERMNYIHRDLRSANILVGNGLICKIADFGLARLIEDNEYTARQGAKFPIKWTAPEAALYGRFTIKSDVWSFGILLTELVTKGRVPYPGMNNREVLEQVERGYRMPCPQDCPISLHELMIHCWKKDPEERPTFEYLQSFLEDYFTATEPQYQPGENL

[1] = system: battery of selected protein kinases; assay: In vitro screen of a battery of selected protein kinases (summary statement); assay type: biochemical; details: BTK, BMX, ABL, ABL(E255K), SRC, ACK, ARG, BLK, DDR2, EPHA, FGR, FMS, FRK, FYN, HCK, LCK, LYN, PDGFRα, PDGFRβ, YES, PIK3CA/PIK3R1, among others
LCK = molecular target: T7, LCK (Homo sapiens, UniProt P06239); assay: Off-chip Mobility Shift Assay, kinase inhibition; assay type: biochemical; details: recombinant LCK; for inhibition at 0.001 µM: at 1 nM; for inhibition at 0.01 µM: at 10 nM
T7 construct: purchased Carna Biosciences, Inc

SRC = molecular target: T8, SRC (Homo sapiens, UniProt P12931); assay: Off-chip Mobility Shift Assay, kinase inhibition; assay type: biochemical; details: recombinant SRC; for inhibition at 0.001 µM: at 1 nM; for inhibition at 0.01 µM: at 10 nM
T8 construct: purchased Carna Biosciences, Inc
T8 sequence (P12931 whole entry): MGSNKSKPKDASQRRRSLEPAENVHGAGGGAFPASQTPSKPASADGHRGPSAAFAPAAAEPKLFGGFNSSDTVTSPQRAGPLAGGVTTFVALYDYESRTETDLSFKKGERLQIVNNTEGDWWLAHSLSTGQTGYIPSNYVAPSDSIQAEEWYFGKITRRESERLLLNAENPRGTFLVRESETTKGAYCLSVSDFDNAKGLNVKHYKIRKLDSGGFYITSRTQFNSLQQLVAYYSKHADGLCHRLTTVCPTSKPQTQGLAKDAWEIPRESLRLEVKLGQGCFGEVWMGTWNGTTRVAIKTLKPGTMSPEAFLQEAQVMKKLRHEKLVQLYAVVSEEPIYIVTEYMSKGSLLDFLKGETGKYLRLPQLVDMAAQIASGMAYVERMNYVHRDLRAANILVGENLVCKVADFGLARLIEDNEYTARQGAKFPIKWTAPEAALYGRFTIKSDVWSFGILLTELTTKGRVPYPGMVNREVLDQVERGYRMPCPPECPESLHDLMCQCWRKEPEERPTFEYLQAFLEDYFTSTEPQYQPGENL

DDR2 = molecular target: T9, DDR2 (Homo sapiens, UniProt Q16832); assay: Off-chip Mobility Shift Assay, kinase inhibition; assay type: biochemical; details: at 10 nM; recombinant DDR2; read-out: inhibition
T9 construct: purchased Carna Biosciences, Inc
T9 sequence (Q16832 22-855): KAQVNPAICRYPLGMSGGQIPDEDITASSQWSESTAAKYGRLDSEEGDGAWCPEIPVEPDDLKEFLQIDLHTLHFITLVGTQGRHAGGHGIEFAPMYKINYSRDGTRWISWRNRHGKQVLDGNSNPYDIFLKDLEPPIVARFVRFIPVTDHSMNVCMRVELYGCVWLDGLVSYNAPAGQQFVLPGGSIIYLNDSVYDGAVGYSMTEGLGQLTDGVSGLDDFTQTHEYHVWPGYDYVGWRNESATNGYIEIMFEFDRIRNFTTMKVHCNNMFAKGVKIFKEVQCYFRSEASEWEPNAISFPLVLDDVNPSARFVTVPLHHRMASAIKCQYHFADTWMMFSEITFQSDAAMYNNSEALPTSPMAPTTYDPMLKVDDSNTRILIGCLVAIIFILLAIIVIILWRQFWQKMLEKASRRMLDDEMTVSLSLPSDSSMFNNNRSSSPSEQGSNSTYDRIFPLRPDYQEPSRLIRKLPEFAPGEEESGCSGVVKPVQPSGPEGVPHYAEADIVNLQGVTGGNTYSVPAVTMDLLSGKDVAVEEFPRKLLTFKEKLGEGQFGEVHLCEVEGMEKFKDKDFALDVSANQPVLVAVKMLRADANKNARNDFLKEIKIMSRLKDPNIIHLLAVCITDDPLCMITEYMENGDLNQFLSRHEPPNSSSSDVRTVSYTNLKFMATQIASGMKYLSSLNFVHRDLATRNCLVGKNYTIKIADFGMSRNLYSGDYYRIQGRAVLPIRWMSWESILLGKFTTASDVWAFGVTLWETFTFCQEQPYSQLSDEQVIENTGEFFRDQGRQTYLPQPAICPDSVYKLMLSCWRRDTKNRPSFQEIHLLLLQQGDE

BTK = molecular target: T10, BTK (Homo sapiens, UniProt Q06187); assay: Off-chip Mobility Shift Assay, kinase inhibition; assay type: biochemical; details: recombinant BTK; for inhibition at 0.001 µM: at 1 nM; for inhibition at 0.01 µM: at 10 nM
T10 construct: purchased Carna Biosciences, Inc

HCK = molecular target: T11, HCK (Homo sapiens, UniProt P08631); assay: Off-chip Mobility Shift Assay, kinase inhibition; assay type: biochemical; details: recombinant HCK; for inhibition at 0.001 µM: at 1 nM; for inhibition at 0.01 µM: at 10 nM, read-out: inhibition
T11 construct: purchased Carna Biosciences, Inc
T11 sequence (P08631 whole entry): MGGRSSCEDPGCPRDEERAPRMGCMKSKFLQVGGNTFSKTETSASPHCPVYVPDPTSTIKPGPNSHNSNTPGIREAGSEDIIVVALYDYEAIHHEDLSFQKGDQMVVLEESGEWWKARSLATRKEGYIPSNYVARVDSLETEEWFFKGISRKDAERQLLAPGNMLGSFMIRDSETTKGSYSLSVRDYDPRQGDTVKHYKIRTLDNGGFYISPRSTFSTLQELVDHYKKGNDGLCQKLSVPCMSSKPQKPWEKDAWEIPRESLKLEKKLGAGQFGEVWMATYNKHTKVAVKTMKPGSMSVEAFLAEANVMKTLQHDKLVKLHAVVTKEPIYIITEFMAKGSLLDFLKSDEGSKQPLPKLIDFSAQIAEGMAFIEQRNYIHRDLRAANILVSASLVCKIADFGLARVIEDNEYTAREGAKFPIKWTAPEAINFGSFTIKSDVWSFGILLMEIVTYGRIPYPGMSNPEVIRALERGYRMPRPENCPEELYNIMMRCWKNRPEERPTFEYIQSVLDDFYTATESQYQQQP

Mino = assay: Cell inhibition assay (PrestoBlue, 48 h); assay type: cell-based; details: Homo sapiens, Mino cells, read-out: IC50, inhibition of growth
BMX = molecular target: T12, BMX (Homo sapiens, UniProt P51813); assay: Off-chip Mobility Shift Assay, kinase inhibition; assay type: biochemical; details: recombinant BMX; for inhibition at 0.001 µM: at 1 nM; for inhibition at 0.01 µM: at 10 nM
T12 construct: purchased Carna Biosciences, Inc
T12 sequence (P51813 1-675): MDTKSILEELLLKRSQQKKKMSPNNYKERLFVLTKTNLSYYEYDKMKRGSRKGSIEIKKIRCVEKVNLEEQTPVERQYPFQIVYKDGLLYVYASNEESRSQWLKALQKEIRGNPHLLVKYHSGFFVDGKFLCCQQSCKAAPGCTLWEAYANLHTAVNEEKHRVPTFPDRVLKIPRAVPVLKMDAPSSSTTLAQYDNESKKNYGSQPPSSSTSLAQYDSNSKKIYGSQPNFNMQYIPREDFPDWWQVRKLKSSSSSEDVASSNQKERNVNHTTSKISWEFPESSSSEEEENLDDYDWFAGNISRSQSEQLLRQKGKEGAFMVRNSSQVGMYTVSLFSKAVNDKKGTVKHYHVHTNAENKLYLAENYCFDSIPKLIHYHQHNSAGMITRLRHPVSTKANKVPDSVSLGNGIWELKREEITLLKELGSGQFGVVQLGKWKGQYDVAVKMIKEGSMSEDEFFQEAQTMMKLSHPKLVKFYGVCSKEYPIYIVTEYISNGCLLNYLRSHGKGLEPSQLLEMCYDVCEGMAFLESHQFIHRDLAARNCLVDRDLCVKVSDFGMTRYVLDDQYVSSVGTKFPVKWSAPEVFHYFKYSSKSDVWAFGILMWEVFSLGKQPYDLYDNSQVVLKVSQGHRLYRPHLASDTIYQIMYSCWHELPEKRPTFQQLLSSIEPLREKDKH

PDGFRα = molecular target: T13, PDGFRα (Homo sapiens, UniProt P16234); assay: Off-chip Mobility Shift Assay, kinase inhibition; assay type: biochemical; details: at 10 nM; recombinant PDGFRα; read-out: inhibition
T13 construct: purchased Carna Biosciences, Inc
T13 sequence (P16234 24-1089): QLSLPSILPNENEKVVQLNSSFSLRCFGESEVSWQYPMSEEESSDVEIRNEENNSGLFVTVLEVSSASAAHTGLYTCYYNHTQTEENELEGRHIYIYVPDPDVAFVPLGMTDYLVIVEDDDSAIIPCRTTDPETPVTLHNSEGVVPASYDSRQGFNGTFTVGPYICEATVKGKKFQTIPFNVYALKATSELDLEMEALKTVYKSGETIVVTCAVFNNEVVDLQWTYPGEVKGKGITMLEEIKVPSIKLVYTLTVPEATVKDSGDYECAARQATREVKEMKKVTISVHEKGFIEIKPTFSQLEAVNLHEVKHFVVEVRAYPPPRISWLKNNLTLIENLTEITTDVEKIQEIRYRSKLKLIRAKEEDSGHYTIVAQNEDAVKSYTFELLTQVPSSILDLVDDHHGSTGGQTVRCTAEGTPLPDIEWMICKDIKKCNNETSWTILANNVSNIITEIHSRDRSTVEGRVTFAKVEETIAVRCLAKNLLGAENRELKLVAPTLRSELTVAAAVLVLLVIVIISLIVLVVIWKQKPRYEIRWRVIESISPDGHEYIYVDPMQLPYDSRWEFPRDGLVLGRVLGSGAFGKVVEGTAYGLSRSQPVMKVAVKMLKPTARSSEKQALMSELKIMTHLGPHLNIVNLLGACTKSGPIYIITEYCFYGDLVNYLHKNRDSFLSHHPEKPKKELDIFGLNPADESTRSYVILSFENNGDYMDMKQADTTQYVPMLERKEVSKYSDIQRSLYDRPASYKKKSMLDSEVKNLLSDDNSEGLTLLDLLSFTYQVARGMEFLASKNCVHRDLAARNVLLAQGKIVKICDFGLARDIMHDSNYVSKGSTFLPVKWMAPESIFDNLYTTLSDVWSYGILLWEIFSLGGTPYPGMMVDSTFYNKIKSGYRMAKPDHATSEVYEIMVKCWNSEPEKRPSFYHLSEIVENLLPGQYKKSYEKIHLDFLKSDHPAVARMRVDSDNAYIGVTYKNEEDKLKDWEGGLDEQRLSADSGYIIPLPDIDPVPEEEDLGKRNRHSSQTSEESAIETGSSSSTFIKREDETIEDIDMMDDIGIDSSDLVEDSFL

PDGFRβ = molecular target: T14, PDGFRβ (Homo sapiens, UniProt P09619); assay: Off-chip Mobility Shift Assay, kinase inhibition; assay type: biochemical; details: at 10 nM; recombinant PDGFRβ; read-out: inhibition
T14 construct: purchased Carna Biosciences, Inc

ACK = molecular target: T15, ACK (Homo sapiens, UniProt Q07912); assay: Off-chip Mobility Shift Assay, kinase inhibition; assay type: biochemical; details: at 10 nM; recombinant ACK
T15 construct: purchased Carna Biosciences, Inc

Cc1nc(Nc2ncc(C(=O)Nc3c(C)cccc3Cl)s2)cc(N2CC[C@@H](O)C2)n1 [Compound XI, N-(2-chloro-6-methylphenyl)-2-[[2-methyl-6-((R)-3-hydroxypyrrolidin-1-yl)pyrimidin-4-yl]amino]thiazole-5-carboxamide]
inhibition at 0.01 µM (ARG): > 50% | inhibition at 0.01 µM (BLK): > 50% | inhibition at 0.001 µM (ABL): > 50% | inhibition at 0.01 µM (ABL): > 50% | inhibition at 0.01 µM (FMS): > 50% | inhibition at 0.001 µM (LYNa): > 50% | inhibition at 0.01 µM (LYNa): > 50% | inhibition at 0.01 µM (FYN(isoform a)): > 50% | activity to inhibit kinases [1]: potent activity | inhibition at 0.001 µM (LCK): > 50% | inhibition at 0.01 µM (LCK): > 50% | inhibition at 0.001 µM (SRC): > 50% | inhibition at 0.01 µM (SRC): > 50% | inhibition at 0.01 µM (DDR2): > 50% | inhibition at 0.001 µM (BTK): > 50% | inhibition at 0.01 µM (BTK): > 50% | inhibition at 0.001 µM (HCK): > 50% | inhibition at 0.01 µM (HCK): > 50% | IC50 (Mino): < 50 nM | inhibition at 0.001 µM (BMX): > 50% | inhibition at 0.01 µM (BMX): > 50% | inhibition at 0.01 µM (PDGFRα): > 50% | inhibition at 0.01 µM (PDGFRβ): > 50% | inhibition at 0.01 µM (ACK): > 50%

Cc1nc(Nc2ncc(C(=O)Nc3c(C)cccc3Cl)s2)cc(N2CC[C@H](N)C2)n1 [Compound XII, N-(2-chloro-6-methylphenyl)-2-[[2-methyl-6-((S)-3-aminopyrrolidin-1-yl)pyrimidin-4-yl]amino]thiazole-5-carboxamide]
inhibition at 0.01 µM (ARG): > 50% | inhibition at 0.01 µM (BLK): > 50% | inhibition at 0.001 µM (ABL): > 50% | inhibition at 0.01 µM (ABL): > 50% | inhibition at 0.01 µM (FMS): > 50% | inhibition at 0.001 µM (LYNa): > 50% | inhibition at 0.01 µM (LYNa): > 50% | inhibition at 0.01 µM (FYN(isoform a)): > 50% | activity to inhibit kinases [1]: potent activity | inhibition at 0.001 µM (LCK): > 50% | inhibition at 0.01 µM (LCK): > 50% | inhibition at 0.001 µM (SRC): > 50% | inhibition at 0.01 µM (SRC): > 50% | inhibition at 0.01 µM (DDR2): > 50% | inhibition at 0.001 µM (BTK): > 50% | inhibition at 0.01 µM (BTK): > 50% | inhibition at 0.001 µM (HCK): > 50% | inhibition at 0.01 µM (HCK): > 50% | IC50 (Mino): < 50 nM | inhibition at 0.001 µM (BMX): > 50% | inhibition at 0.01 µM (BMX): > 50% | inhibition at 0.01 µM (PDGFRα): > 50% | inhibition at 0.01 µM (PDGFRβ): > 50% | inhibition at 0.01 µM (ACK): > 50%

Cc1nc(Nc2ncc(C(=O)Nc3c(C)cccc3Cl)s2)cc(N2CC[C@@H](N)C2)n1 [Compound XIII, N-(2-chloro-6-methylphenyl)-2-[[2-methyl-6-((R)-3-aminopyrrolidin-1-yl)pyrimidin-4-yl]amino]thiazole-5-carboxamide]
inhibition at 0.01 µM (ARG): > 50% | inhibition at 0.01 µM (BLK): > 50% | inhibition at 0.001 µM (ABL): > 50% | inhibition at 0.01 µM (ABL): > 50% | inhibition at 0.01 µM (FMS): > 50% | inhibition at 0.001 µM (LYNa): > 50% | inhibition at 0.01 µM (LYNa): > 50% | inhibition at 0.01 µM (FYN(isoform a)): > 50% | activity to inhibit kinases [1]: potent activity | inhibition at 0.001 µM (LCK): > 50% | inhibition at 0.01 µM (LCK): > 50% | inhibition at 0.001 µM (SRC): > 50% | inhibition at 0.01 µM (SRC): > 50% | inhibition at 0.01 µM (DDR2): > 50% | inhibition at 0.001 µM (BTK): > 50% | inhibition at 0.01 µM (BTK): > 50% | inhibition at 0.001 µM (HCK): > 50% | inhibition at 0.01 µM (HCK): > 50% | IC50 (Mino): < 50 nM | inhibition at 0.001 µM (BMX): > 50% | inhibition at 0.01 µM (BMX): > 50% | inhibition at 0.01 µM (PDGFRα): > 50% | inhibition at 0.01 µM (PDGFRβ): > 50% | inhibition at 0.01 µM (ACK): > 50%
